# Values quoted from earlier work as cited in US20210077540A1, “BIOACTIVE GREEN-LIPPED MUSSEL EXTRACTS AND USES THEREOF” (SANFORD LIMITED, priority 2018, published 2021).
# Key:
# [1] = oral supplementation, meta-analysis of randomized, double-blind, placebo-controlled trials
# [2] = supplementation, women with gestational hypertension incl. pre-eclampsia
compound,measurement,setting,value
N=C(N)NCCC[C@H](N)C(=O)O [L-arginine],"reduction of diastolic blood pressure, pooled estimate",[1],2.7 mmHg
same,"reduction of systolic blood pressure, pooled estimate",[1],5.4 mmHg
same,effect on diastolic blood pressure (in words),[2],reduces diastolic blood pressure
same,effect on length of pregnancy (in words),[2],lengthens pregnancy
